Measurements from US20080182908A1, “PHARMACEUTICAL COMPOSITIONS COMPRISING MEMANTINE” (priority 2007, published 2008).
Counter-ions that a name gives are not always drawn.

Key:
[1] = cited from earlier work
[2] = Physicochemical properties of the active ingredient (density, flow, particle size distribution); conditions: active ingredient used in Example 1
Text: The different physicochemical properties of the active ingredient as well as excipients are to be considered, as these properties affect processing and the formulation properties of the compositions. Various physicochemical properties include, but are not limited to, particle size of the active ingredient, density (including bulk density and tapped density), compressibility index, Hausner's ratio, angle of repose, etc. The percentages of particles with different sizes that exist in a total powder, is the particle size distribution. It is represented in certain ways. Particle size is the maximun dimension of a particle, frequently expressed in micrometers. Particle size distributions can be expressed in terms of D10, D50, D90 and D[4,3]. The D10, D50 and D90 represent the 10th, median or the 50th percentile, and the 90th percentile of the particle size distribution, respectively, as measured by volume. That is, the D10, D50, D90 are values of the distribution such that 10%, 50%, and 90% of the particles have a size of this value or less […]. D50 also known as median diameter of particles. It is one of the important parameters representing characteristics of particle of powder. For a sample, if D50=5 μm, it means that 50% of the particles are smaller than 5 μm. Similarly, if D10=5 μm, 10% of the particles are less than or equal to 5 μm and if D90=5 μm, 90% of the particles have sizes less than or equal to 5 μm. D[4,3] is the volume moment mean of the particles or the volume weighted particle size.

[3] = system: NMDA (N-methyl-D-aspartate) receptor; conditions: noncompetitive NMDA receptor antagonist; cited from earlier work

| Bulk density [2] [g/mL] | Compressibility index [2] | Hauser's ratio [2] | Particle size distribution: D(10) [2] [μm] | Particle size distribution: D(50) [2] [μm] | Particle size distribution: D(90) [2] [μm] | Tapped density [2] [g/mL] | SMILES | Solubility in water [1] | Affinity for the receptor [3] | Blocking/unblocking kinetics [3] |
| --- | --- | --- | --- | --- | --- | --- | --- | --- | --- | --- |
| 0.317 | 31.83 | 1.467 | 10.744 | 60.545 | 210.482 | 0.465 | CC12CC3CC(C)(C1)CC(N)(C3)C2 [memantine hydrochloride] | highly soluble in water | – | – |
| – | – | – | – | – | – | – | C[C@]12CC3C[C@](C)(C1)C[C@@](N)(C3)C2 [Memantine, 1-amino-3,5-dimethyladamantane] | – | low to moderate affinity | rapid blocking/unblocking kinetics |
